# Laboratory results as given in PubChem BioAssay (NCI).
# Values joined by “and” are separate entries in the source; they are usually repeats but may differ in a detail not shown here. Identical values can stand only once.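 Five compound concentrations were applied to cells in 96-well plates for 48 hours; endpoints were derived by simple linear interpolation of the resulting dose-response curve. GI50 marks 50% less growth. The concentration for full growth arrest is given as TGI.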
# How the values were obtained:
# Test in all cases: growth of human tumour cells (NCI), 48 h
# NCI-H23 lung = test system: NCI-H23 lung
# LOX IMVI melanoma = test system: LOX IMVI melanoma
# OVCAR-3 ovarian = test system: OVCAR-3 ovarian
# COLO 205 colon = test system: COLO 205 colon
# OVCAR-4 ovarian = test system: OVCAR-4 ovarian
# CCRF-CEM leukemia = test system: CCRF-CEM leukemia
# KM12 colon = test system: KM12 colon
# SNB-19 CNS = test system: SNB-19 CNS
# HT29 colon = test system: HT29 colon
# RPMI-8226 leukemia = test system: RPMI-8226 leukemia
Structure (SMILES),TGI (NCI-H23 lung),TGI (LOX IMVI melanoma),TGI (OVCAR-3 ovarian),TGI (COLO 205 colon),TGI (OVCAR-4 ovarian),TGI (CCRF-CEM leukemia),TGI (KM12 colon),TGI (SNB-19 CNS),TGI (HT29 colon),GI50 (NCI-H23 lung),GI50 (LOX IMVI melanoma),GI50 (OVCAR-3 ovarian),GI50 (COLO 205 colon),GI50 (OVCAR-4 ovarian),GI50 (CCRF-CEM leukemia),GI50 (KM12 colon),GI50 (SNB-19 CNS),GI50 (RPMI-8226 leukemia),TGI (RPMI-8226 leukemia),GI50 (HT29 colon)
CC[C@@H]1NC(C(=O)OC)Cc2c1[nH]c1ccccc21 (some centres not stated),> 100 µM,> 100 µM,> 100 µM,> 100 µM,> 100 µM,> 100 µM,> 100 µM,> 100 µM,> 100 µM,,,,,,,,,,,
COc1ccc(-c2c(C#N)c(N3CCOCC3)nc3[nH]c(=S)[nH]c(=S)c23)cc1OC,> 100 µM,60.9 µM,> 100 µM,> 100 µM,> 100 µM,> 100 µM,> 100 µM,> 100 µM,,20.9 µM,16.7 µM,34.6 µM,66.8 µM,76.6 µM,41.3 µM,29.1 µM,> 100 µM,9.74 µM,70.5 µM,
CCCCNCCCNCCCNC(=O)c1csc(-c2csc(CCNC(=O)C(NC(=O)C(C)C(O)C(C)NC(=O)C(NC(=O)c3nc(C(CC(N)=O)NCC(N)C(N)=O)nc(N)c3C)C(OC3OC(CO)C(O)C(O)C3OC3OC(CO)C(O)C(OC(N)=O)C3O)c3cnc[nH]3)C(C)O)n2)n1 (configuration not stated),7.42 µM and 2.2 µM,7.15 µM and 6.49 µM,50 µM and 22.9 µM,50 µM and > 89.1 µM,,50 µM and > 100 µM,> 100 µM,50 µM and > 65.7 µM,50 µM and > 100 µM,0.269 µM,0.194 µM,30.3 µM,26.6 µM,0.459 µM,6.4 µM,> 50 µM,,19.7 µM,> 100 µM,1.73 µM
O=c1[nH]c(O)c(C=Nc2ccc(-c3nc4ccccc4o3)cc2)c(=O)[nH]1,,58.9 µM,57.4 µM,> 100 µM,> 100 µM,,> 100 µM,> 100 µM,,,25.3 µM,15.6 µM,23.2 µM,33 µM,,31.3 µM,> 100 µM,27.5 µM,> 100 µM,
CCCCCCCCc1cc2c(O)c(c1)Cc1cc(CCCCCCCC)cc(c1O)Cc1cc(CCCCCCCC)cc(c1O)Cc1cc(CCCCCCCC)cc(c1O)Cc1cc(CCCCCCCC)cc(c1O)Cc1cc(CCCCCCCC)cc(c1O)C2,> 100 µM,> 100 µM,,> 100 µM,,> 100 µM,> 100 µM,> 100 µM,> 100 µM,,,,,,,,,,,
NC(N)=Nc1nc2ccccc2o1,> 100 µM,> 100 µM,> 100 µM,> 100 µM,> 100 µM,> 100 µM,> 100 µM,> 100 µM,> 100 µM,> 100 µM,> 100 µM,> 100 µM,> 100 µM,> 100 µM,> 100 µM,> 100 µM,> 100 µM,,,> 100 µM
COc1c2occc2c(N)c2ccc(=O)oc12,> 100 µM,> 100 µM,> 100 µM,> 100 µM,> 100 µM,> 100 µM,> 100 µM,> 100 µM,> 100 µM,,,,,,,,,,> 100 µM,
O/N=C1\CCCCC1C(NO)c1ccccc1 (configuration not stated),> 100 µM,> 100 µM,> 100 µM,> 100 µM,> 100 µM,> 100 µM,> 100 µM,> 100 µM,> 100 µM,,,,,,,,,,> 100 µM,
CCOC(=O)C(Br)=C1OC(=O)c2ccccc2-c2ccccc21 (mixture of isomers),48 µM,35.9 µM,35.9 µM,32.9 µM,,40.2 µM,34.9 µM,,29.5 µM,,,,,,,,,,38.1 µM,
CCSc1nc(N=Cc2ccccc2O)c2cn[nH]c2n1,34.9 µM,> 100 µM,61.2 µM,> 100 µM,> 100 µM,,37 µM,> 100 µM,> 100 µM,15.2 µM,30.1 µM,13.8 µM,30.7 µM,35 µM,,13.2 µM,56.1 µM,23.2 µM,> 100 µM,30.7 µM
COc1ccc(Cl)cc1NC(=O)c1ccc(NC2=C(Cl)C(=O)N(Cc3ccccc3)C2=O)cc1,> 100 µM,> 100 µM,> 100 µM,> 100 µM,> 100 µM,94.5 µM,> 100 µM,> 100 µM,> 100 µM,55.8 µM,8.5 µM,36.3 µM,> 100 µM,> 100 µM,3.99 µM,64.4 µM,> 100 µM,,,4.8 µM
NCCCn1c2c(c3ccc([N+](=O)[O-])cc3c1=O)C(=O)c1cc(I)ccc1-2,1.22 µM,1.39 µM,2.9 µM,2.44 µM,,0.279 µM,1.31 µM,1.61 µM,0.352 µM,0.0343 µM,< 0.01 µM,1.19 µM,1.02 µM,,< 0.01 µM,0.127 µM,< 0.01 µM,0.0218 µM,0.265 µM,0.0951 µM
O=S(=O)(OI(OI(OS(=O)(=O)C(F)(F)F)c1ccccc1)c1ccccc1)C(F)(F)F,,> 100 µM,> 100 µM,> 100 µM,,91.1 µM,> 100 µM,> 100 µM,,,,,,,,,,,> 100 µM,
CCCN(CCC)c1c([N+](=O)[O-])cc(C(=O)N(CC)CC)cc1[N+](=O)[O-],40.8 µM,30.8 µM,33.3 µM,32.7 µM,,60.9 µM,,> 100 µM,> 100 µM,,,,,,,,,,36.3 µM,
COc1nc(=O)n(C2C=CC(=O)O2)cc1F (configuration not stated),25.5 µM,22.9 µM,11.2 µM,3.62 µM,15.5 µM,,23.9 µM,57 µM,16.7 µM,8.06 µM,10.9 µM,3.26 µM,1.71 µM,3.09 µM,,11.7 µM,22.3 µM,3.26 µM,13.4 µM,4.63 µM
CC(C)C1CN(C(=O)OCc2ccccc2)C2N1C(=O)C2(C)OCc1ccccc1 (configuration not stated),> 100 µM,> 100 µM,> 100 µM,37.2 µM,> 100 µM,> 100 µM,,> 100 µM,> 100 µM,,,,,,,,,,66.6 µM,
O=C1C=C(c2c(O)ccc3ccccc23)c2cc(O)ccc2C1=O,29.7 µM,25.3 µM,22.5 µM,40 µM,26.1 µM,,31.5 µM,31.3 µM,47.9 µM,,,,,,,,,,> 100 µM,
